{
  "source": "the PolyMetriX glass transition set",
  "data": [
    {"units": {"glass transition temperature": "°C"}, "values": [
      {"smiles": "*CC(OC)C1C(=O)OC(=O)C1*", "note": "(repeat unit)", "glass transition temperature": 153.50},
      {"smiles": "*OC1CCC(OC(=O)C(*)=O)CC1", "note": "(repeat unit)", "glass transition temperature": 139.60},
      {"smiles": "*C(=O)Nc1ccc(Oc2ccc(C(C)(C)c3ccc(Oc4ccc(NC(=O)c5ccc6c(c5)C(=O)N(c5ccc(Oc7ccc8ccc(Oc9ccc(N%10C(=O)c%11ccc(*)cc%11C%10=O)cc9)cc8c7)cc5)C6=O)cc4)cc3)cc2)cc1", "note": "(repeat unit)", "glass transition temperature": 250.00},
      {"smiles": "*c1ccc(-c2ccc(-c3nc4cc(Oc5ccc(NC(=O)c6ccc7c(c6)C(=O)N(c6ccc(C(c8ccc(N9C(=O)c%10ccc(C(=O)Nc%11ccc(Oc%12ccc%13nc(-c%14ccccc%14)c(*)nc%13c%12)cc%11)cc%10C9=O)cc8)(C(F)(F)F)C(F)(F)F)cc6)C7=O)cc5)ccc4nc3-c3ccccc3)cc2)cc1", "note": "(repeat unit)", "glass transition temperature": 290.00},
      {"smiles": "*CC(O)COC(=O)C1CCC(C(=O)OCC(O)COc2ccc(C3(c4ccc(O*)cc4)c4ccccc4-c4ccccc43)cc2)CC1", "note": "(repeat unit)", "glass transition temperature": 110.00},
      {"smiles": "*CC(*)(CC(=O)OCC)C(=O)OCC", "note": "(repeat unit)", "glass transition temperature": 65.50},
      {"smiles": "*C/C=C(\\C)C(C)S(*)(=O)=O", "note": "(repeat unit)", "glass transition temperature": 73.00},
      {"smiles": "*CC(O)COc1c(Cl)cc(C(C)(C)c2cc(Cl)c(OCC(O)COc3ccc(C(C)(C)c4ccc(O*)cc4)cc3)c(Cl)c2)cc1Cl", "note": "(repeat unit)", "glass transition temperature": 100.00},
      {"smiles": "*CC(*)(C)C(=O)Oc1ccc(C(C)(C)C)cc1", "note": "(repeat unit)", "glass transition temperature": 91.00},
      {"smiles": "*c1ccc(OC(=O)c2cccc(C(=O)Oc3ccc(C4(*)C(=O)Nc5ccccc54)cc3)c2)cc1", "note": "(repeat unit)", "glass transition temperature": 256.00},
      {"smiles": "*Oc1ccc(CC(NC(=O)CCc2ccc(OC(=O)CCCC(*)=O)cc2)C(=O)OCCOCCOCC)cc1", "note": "(repeat unit)", "glass transition temperature": 21.00},
      {"smiles": "*c1ccc2c(c1)Sc1cc(-c3sc4cc(*)sc4c3CCCCC)ccc1N2CCCCCCCCCCCC", "note": "(repeat unit)", "glass transition temperature": 136.00},
      {"smiles": "*CCN(CCOC(=O)Nc1ccc(C)c(NC(=O)O*)c1)c1ccc(/N=N/c2ccc(B(c3c(C)cc(C)cc3C)c3c(C)cc(C)cc3C)cc2)cc1", "note": "(repeat unit)", "glass transition temperature": 159.00},
      {"smiles": "*c1cccc(OCCCCCCCCOc2cccc(N3C(=O)c4ccc(-c5ccc6c(c5)C(=O)N(*)C6=O)cc4C3=O)c2)c1", "note": "(repeat unit)", "glass transition temperature": 138.00},
      {"smiles": "*O[Si](c1ccccc1)(c1ccccc1)c1cccc(*)c1", "note": "(repeat unit)", "glass transition temperature": 62.00},
      {"smiles": "*Oc1ccc(C2(c3ccc(OC(*)=O)cc3)c3cc(N(C)C)ccc3-c3ccc([N+](=O)[O-])cc32)cc1", "note": "(repeat unit)", "glass transition temperature": 278.00},
      {"smiles": "*Oc1ccc(NC(=O)c2cc(NC(=O)c3ccc(OC(C)=O)cc3)cc(C(=O)Nc3ccc(*)cc3)c2)cc1", "note": "(repeat unit)", "glass transition temperature": 273.00},
      {"smiles": "*CC(*)C(=O)OCCCSCCC#N", "note": "(repeat unit)", "glass transition temperature": -58.00},
      {"smiles": "*c1ccc(Oc2ccc(NC(=O)c3ccc(C(=O)Nc4ccc(Oc5ccc(-c6nnc(*)o6)cc5)cc4)c(Oc4ccccc4)c3)cc2)cc1", "note": "(repeat unit)", "glass transition temperature": 245.00},
      {"smiles": "*CCCCCCCCCCCN1C(=O)c2ccc(Oc3ccc4c(c3)C(=O)N(*)C4=O)cc2C1=O", "note": "(repeat unit)", "glass transition temperature": 74.00},
      {"smiles": "*c1cccc(N2C(=O)c3cccc(Oc4ccc(C(=O)c5ccc(Oc6cccc7c6C(=O)N(*)C7=O)cc5)cc4)c3C2=O)c1", "note": "(repeat unit)", "glass transition temperature": 248.00},
      {"smiles": "*c1ccc(C(C)(C)c2ccc(C(C)(C)c3ccc(N4C(=O)c5ccc(Oc6ccc7ccc(Oc8ccc9c(c8)C(=O)N(*)C9=O)cc7c6)cc5C4=O)cc3)cc2)cc1", "note": "(repeat unit)", "glass transition temperature": 246.00},
      {"smiles": "*c1ccc(Oc2ccc(-c3ccc(Oc4ccc(N5C(=O)c6ccc(Oc7ccc(Oc8ccc9c(c8)C(=O)N(*)C9=O)cc7)cc6C5=O)cc4)cc3)cc2)cc1", "note": "(repeat unit)", "glass transition temperature": 230.00},
      {"smiles": "*O[Si](*)(C)CCc1ccc(O)cc1", "note": "(repeat unit)", "glass transition temperature": 39.00},
      {"smiles": "*CC(*)c1ccccc1COCCCCC", "note": "(repeat unit)", "glass transition temperature": 47.00},
      {"smiles": "*C(=O)c1ccc2c(c1)C(=O)N(c1ccc(Oc3ccc(C(=O)c4cccc(C(=O)c5ccc(Oc6ccc(N7C(=O)c8ccc(*)cc8C7=O)cc6)cc5)c4)cc3)cc1)C2=O", "note": "(repeat unit)", "glass transition temperature": 222.00},
      {"smiles": "*CC(*)n1ccnc1", "note": "(repeat unit)", "glass transition temperature": 175.00},
      {"smiles": "*CC(O)C(O)CN(*)c1ccc(N(C)C)cc1", "note": "(repeat unit)", "glass transition temperature": 72.00},
      {"smiles": "*Oc1ccc(-c2ccc(Oc3ccc(C(C)(C)c4ccc(*)cc4)cc3)cc2)cc1", "note": "(repeat unit)", "glass transition temperature": 154.00},
      {"smiles": "*CCN(CCOC(=O)Nc1ccc(C)c(NC(=O)O*)c1)c1ccc([N+](=O)[O-])cc1C", "note": "(repeat unit)", "glass transition temperature": 98.00},
      {"smiles": "*c1ccc(-c2ccc(N3C(=O)c4ccc(Oc5ccc6c(c5)C(=O)N(*)C6=O)cc4C3=O)c(OCCCCCCOc3ccc(/C=C/c4ccc(F)cc4)cc3)c2)cc1OCCCCCCOc1ccc(/C=C/c2ccc(F)cc2)cc1", "note": "(repeat unit)", "glass transition temperature": 124.00},
      {"smiles": "*C(=O)c1ccc2c(c1)C(=O)N(c1ccc(-c3cc(C(C)(C)C)c(Oc4ccc(N5C(=O)c6ccc(*)cc6C5=O)cc4)c(C(C)(C)C)c3)cc1)C2=O", "note": "(repeat unit)", "glass transition temperature": 347.50},
      {"smiles": "*Oc1ccc(C(=O)c2cccc(NC(=O)CCCCCCCCC(=O)Nc3cccc(C(=O)c4ccc(*)cc4)c3)c2)cc1", "note": "(repeat unit)", "glass transition temperature": 141.00},
      {"smiles": "*C(=O)c1cc2c(cc1Cl)C(=O)N(c1cc(N3C(=O)c4cc(*)c(Cl)cc4C3=O)cc(C(C)(C)C)c1)C2=O", "note": "(repeat unit)", "glass transition temperature": 290.00},
      {"smiles": "*Oc1ccc(NC(=O)c2cc(C(=O)Nc3ccc(*)cc3)cc(S(=O)(=O)c3ccccc3)c2)cc1", "note": "(repeat unit)", "glass transition temperature": 279.00},
      {"smiles": "*Cc1cc(CNC(=O)CCCCC(=O)N*)cc(C(C)(C)C)c1", "note": "(repeat unit)", "glass transition temperature": 109.00},
      {"smiles": "*CC(C)(C)COC(=O)c1ccc(/C=C/c2ccc(C(=O)O*)cc2)cc1", "note": "(repeat unit)", "glass transition temperature": 80.00},
      {"smiles": "*Oc1ccc(Oc2ccc(C(=O)Nc3ccc(Oc4ccc(S(=O)(=O)c5ccc(Oc6ccc(NC(=O)c7ccc(*)cc7)cc6)cc5)cc4)cc3)cc2)cc1C", "note": "(repeat unit)", "glass transition temperature": 217.00},
      {"smiles": "*CC(O)CO*", "note": "(repeat unit)", "glass transition temperature": 17.00},
      {"smiles": "*CCCCCCCCCn1c(=O)c2cc3c(=O)n(*)c(=O)c3cc2c1=O", "note": "(repeat unit)", "glass transition temperature": 110.00},
      {"smiles": "*c1cccc(NC(=O)c2ccc(OCCOCCOCCOCCOCCOc3ccc(C(=O)Nc4ccc5[nH]c(*)nc5c4)cc3)cc2)c1", "note": "(repeat unit)", "glass transition temperature": 140.00},
      {"smiles": "*Oc1ccc(C(C)(C)c2ccc(Oc3ccc(C(=O)c4c(C(=O)c5ccc(*)cc5)c(-c5ccccc5)c(-c5ccc6ccccc6c5)c(-c5ccc6ccccc6c5)c4-c4ccccc4)cc3)cc2)cc1", "note": "(repeat unit)", "glass transition temperature": 264.00},
      {"smiles": "*CC(*)(CC(=O)Oc1ccc(OCCCCC)cc1)C(=O)Oc1ccc(OCCCCC)cc1", "note": "(repeat unit)", "glass transition temperature": 73.50},
      {"smiles": "*c1ccc(Oc2ccc(-c3c(-c4ccccc4)c(-c4ccc(-c5nc6ccccc6c(*)c5-c5ccccc5)cc4)nc4ccccc34)cc2)cc1", "note": "(repeat unit)", "glass transition temperature": 273.00},
      {"smiles": "*/C=C/C1CC(*)C2C(=O)N(CCCCCC)C(=O)C12", "note": "(repeat unit)", "glass transition temperature": 87.00},
      {"smiles": "*OP(=O)(Oc1ccc([N+](=O)[O-])cc1)Oc1c(C)cc(S(=O)(=O)c2cc(C)c(*)c(C)c2)cc1C", "note": "(repeat unit)", "glass transition temperature": 173.00},
      {"smiles": "*O[Si](*)(C)CCCOc1ccc(C(=O)Oc2ccc(OC)cc2)cc1", "note": "(repeat unit)", "glass transition temperature": 37.00},
      {"smiles": "*c1ccc(-c2sc(-c3ccc(-c4cc(CCCC)c(*)s4)cc3)cc2CCCC)cc1", "note": "(repeat unit)", "glass transition temperature": 58.30},
      {"smiles": "*c1ccc(Oc2ccc(C(C)(C)c3ccc(Oc4ccc(N5C(=O)c6ccc(Oc7ccc(C(C)(C)c8ccc(Oc9ccc%10c(c9)C(=O)N(*)C%10=O)cc8)cc7)cc6C5=O)cc4)cc3)cc2)cc1", "note": "(repeat unit)", "glass transition temperature": 176.00},
      {"smiles": "*NC(CCC(=O)OCC)C(*)=O", "note": "(repeat unit)", "glass transition temperature": 0.00},
      {"smiles": "*/N=N/c1ccc(Nc2ccc(C(=O)c3ccc(C(=O)c4ccc(Nc5ccc(*)cc5)cc4)cc3)cc2)cc1", "note": "(repeat unit)", "glass transition temperature": 203.00},
      {"smiles": "*CCOCCOC(=O)CCCCCCCCCCCCCCCCC(=O)O*", "note": "(repeat unit)", "glass transition temperature": -68.00},
      {"smiles": "*Nc1ccc(C(C)(C)c2ccc(NC(=O)c3cc(C(*)=O)cc(S(=O)(=O)c4ccccc4)c3)cc2)cc1", "note": "(repeat unit)", "glass transition temperature": 287.00},
      {"smiles": "*Oc1ccc(/N=C(\\c2ccccc2)c2ccc(Oc3ccc(C(c4ccccc4)(c4ccccc4)c4ccc(Oc5ccc(/C(=N/c6ccc(*)cc6)c6ccccc6)cc5)cc4)cc3)cc2)cc1", "note": "(repeat unit)", "glass transition temperature": 177.00},
      {"smiles": "*c1cc(C)c(/N=C/c2ccc(OCc3ccccc3COc3ccc(/C=N/c4cc(C)c(N5C(=O)c6ccc7c8ccc9c%10c(ccc(c%11ccc(c6c7%11)C5=O)c%108)C(=O)N(*)C9=O)cc4C)cc3OC)c(OC)c2)cc1C", "note": "(repeat unit)", "glass transition temperature": 143.00},
      {"smiles": "*CCCCCCCCOc1ccc(CCc2ccc(O*)cc2C)cc1", "note": "(repeat unit)", "glass transition temperature": -12.00},
      {"smiles": "*C(=O)Nc1ccc(C(=O)c2ccc(NC(=O)c3ccc4c(c3)C(=O)N(c3ccc(NC(=O)Nc5ccc(N6C(=O)c7ccc(*)cc7C6=O)cc5)cc3)C4=O)cc2)cc1", "note": "(repeat unit)", "glass transition temperature": 212.00},
      {"smiles": "*CC(*)C(=O)Oc1ccc(C(=O)O)cc1", "note": "(repeat unit)", "glass transition temperature": 125.00},
      {"smiles": "*/C=C/C(C)C*", "note": "(repeat unit)", "glass transition temperature": -35.00},
      {"smiles": "*CC(*)(C)C(=O)OCCCCCCOc1ccc(C(=O)Oc2ccc(/N=N/c3ccc(C#N)cc3)c3ccccc23)cc1", "note": "(repeat unit)", "glass transition temperature": 41.00},
      {"smiles": "*Nc1cc(NC(=O)c2ccc(-c3ccc(C(*)=O)cc3)cc2)cc(C(=O)OCCOc2ccc(/C=C/C(=O)c3ccccc3)cc2)c1", "note": "(repeat unit)", "glass transition temperature": 254.00},
      {"smiles": "*CC(*)C(=O)Oc1ccccc1Cl", "note": "(repeat unit)", "glass transition temperature": 318.00}
    ]}
  ]
}
